Assay results as given in patent US20080039481A1, “Seed Dressing for Soya Bean” (BAYER CROPSCIENCE AG, priority 2004, published 2008).

Assays:
Phakopsora Pachyrhizi [1] = experiment: Seed dressing field trial, action of fluquinconazole against soya bean rust; assay type: in vivo; conditions: natural infection (control 75%)
Description: Action of Fluquinconazole against Phakopsora Pachyrhizi Seed Dressing: Fluquinconazole 25 WPC (Wettable Powder) For dressing, the seed was shaken for 1 minute with the seed dressing in a closed plastic bag. The seed was sown in a field (4 plots, plot size in each case 10 m^2, 40 seeds per m^2) and, one day after sowing, artificially irrigated. The natural degree of infection in the control was, on average, 75%. The efficacy is expressed in percent. 0% means an efficacy which corresponds with that of the control, whereas an efficacy of 100% means that no infection is observed.

Phakopsora Pachyrhizi [2] = experiment: Seed dressing field trial, action of prothioconazole against soya bean rust; assay type: in vivo; conditions: duration 28 days, natural infection (control 75%)
Description: Action of Prothioconazole against Phakopsora Pachyrhizi
Seed Dressing: Prothioconazole
For dressing, the seed was shaken for 1 minute with the seed dressing in a closed plastic bag.
The seed was sown in a field (4 plots, plot size in each case 10 m^2, 40 seeds per m^2) and, one day after sowing, artificially irrigated.
The natural degree of infection in the control was, on average, 75%.
The efficacy is expressed in percent. 0% means an efficacy which corresponds with that of the control, whereas an efficacy of 100% means that no infection is observed.

Measured: Efficacy

O=c1c2cc(F)ccc2nc(-n2cncn2)n1-c1ccc(Cl)cc1Cl [fluquinconazole]
100%: Phakopsora Pachyrhizi [1]; 5 g of fluquinconazole/100 kg of seed, duration 28 days | Phakopsora Pachyrhizi [1]; 50 g of fluquinconazole/100 kg of seed, duration 22 days | Phakopsora Pachyrhizi [1]; 50 g of fluquinconazole/100 kg of seed, duration 33 days | Phakopsora Pachyrhizi [1]; 50 g of fluquinconazole/100 kg of seed, duration 37 days

OC(Cc1ccccc1Cl)(Cn1nc[nH]c1=S)C1(Cl)CC1 (stereo not drawn) [prothioconazole]
100%: Phakopsora Pachyrhizi [2]; 5 g of prothioconazole/100 kg of seed | Phakopsora Pachyrhizi [2]; 10 g of prothioconazole/100 kg of seed
